In publication PMC12124432, “Antimicrobial Peptide‐Peptoid Macrocycles from the Polymyxin B2 Chemical Space” (Angewandte Chemie (International Ed. in English), 2025):
≈ marks a conversion by molar mass, not a printed value. Bridge positions count the residues as written; N and C are the ends. Square brackets hold non-standard residues; d marks the D form. Peptide text beside a SMILES is read from it. * marks the point of attachment. NGly(CH2(3-pyridyl)) = O=C(O)CNCc1cccnc1; Gly(NCH2CH2Ph) = O=C(O)CNCCc1ccccc1; Pentanoyl(4-Me) = CC(C)CCC(=O)*; Gly(N(CH2)3NH2) = NCCCNCC(=O)O; Octanoyl = CCCCCCCC(=O)*; Dab = NCC[C@H](N)C(=O)O; NPrGly = CCCNCC(=O)O; Nlys = NCCCCNCC(=O)O

Legend:
[1] = tested on: E. coli W3110, P. aeruginosa PAO1, S. aureus COL (MRSA), A. baumannii ATCC19606, K. pneumoniae NCTC418; experiment: MIC of macrocycles versus their linearized analogs (Table S4 panel); format: cell-based; settings: Table S4, 12.5% MH pH 7.4
Method: (§1) Minimal Inhibitory Concentration (MIC)
Antimicrobial activity was assayed for all the peptide-peptoids against P. aeruginosa PAO1, K. pneumoniae NCTC418, E. coli W3110, A. baumannii ATCC 19606, methicillin-resistant S. aureus COL (MRSA) and for selected peptides on P. aeruginosa PA14, as well as the clinical isolates ZEM-1A and ZEM9A, K. pneumoniae OXA-48, Enterobacter cloacae, Stenotrophomonas maltophilia and Staphylococus epidermidis. To determine the Minimal Inhibitory Concentration (MIC), Broth Microdilution method was used. A colony of bacteria was picked and grown in LB medium overnight at 37 °C. The next day, the culture was then regrown in LB medium to log phase (OD600 = 0.6 to 0.8), which lasted approximately 4 hours, and diluted to an OD600 of 0.022 in the desired medium (full MH or 12.5% MH). […]
To determine the minimal hemolytic concentration (MHC), stock solutions of 8 mg/mL of the peptide in sterilized MilliQ water deionized were prepared and 50 μL were diluted serially by ½ in 50 μL PBS (pH 7.4) in 96-well plate (Costar or Nunc, polystyrene, untreated). […] Minimal hemolytic concentration (MHC) end points were determined by visual determination of the wells after the incubation period. […]

human red blood cells = experiment: Minimal hemolytic concentration (MHC); format: cell-based; settings: pH 7.4, 25 °C, 4 h
Method: (§2) minimal inhibitory concentration (MIC) was defined as the lowest concentration of the compound that inhibits the visible growth of the tested bacteria (yellow) with the unaided eye.
Minimal Hemolytic Concentration (MHC)
To determine the minimal hemolytic concentration (MHC), stock solutions of 8 mg/mL of the peptide in sterilized MilliQ water deionized were prepared and 50 μL were diluted serially by ½ in 50 μL PBS (pH 7.4) in 96-well plate (Costar or Nunc, polystyrene, untreated). Human red blood cells (hRBC) were obtained by centrifugation of 1.5 mL of whole blood, from the blood bank of Bern, at 3000 rpm for 15 minutes at 4 °C. Plasma was discarded and the pellet was re-suspended in a 15 mL Falcon tube in 5 mL of PBS. The washing was repeated three times, and the remaining pellet was re-suspended in 10 mL of PBS at a final hRBC concentration of 5%. The hRBC suspension (50 μL) was added to each well and the plate was incubated at room temperature for 4 hours. Minimal hemolytic concentration (MHC) end points were determined by visual determination of the wells after the incubation period.
Controls on each plate included a blank medium control (50 μL PBS + 50 μL of hRBC suspension) and a hemolytic activity control t-octylphenoxypolyethoxyethanol (Triton-X100) (1 % in MilliQ-deionized water) 50 μL + 50 μL hRBC suspension).
Table S3. […]

[2] = Dansyl-polymyxin (DsPMB) displacement assay; format: binding, Pseudomonas aeruginosa; settings: 37 °C, 2.5 µM DsPMB, LPS 3 μg/mL, emission 485 nm; mean ± SD, n = 3
Method: 14. Dansyl-Polymyxin (DsPMB) Displacement Assay
Saturation determination. Dansyl-polymyxin (DsPMB) in water (1.5 mg/mL) and lyophilized lipopolysaccharides from P. aeruginosa were obtained from Merck. LPS were prepared as a 1 mg/mL stock solution in mQ water and stored at 4 °C. The fluorescence saturation of DsPMB with LPS was first determined, by titration (0.25 μM increments, up to 5 μM) of the DsPMB into a 3 μg/mL of LPS (10 mM Tris, 10 mM NaCl buffer, pH 7.4), at 37 °C. The fluorescence was recorded with a Jasco spectrofluorometer FP-8300, with the excitation at λex = 340 nm (5 nm slit width) and recorded from 420 to 650 nm. The fluorescence was recorded two minutes after each addition. Saturation was graphically determined, at a concentration of D sPMB ≈ 2.5 μM (λem = 485 nm). Each measurement was determined in triplicates.
Displacement assay. The displacement effect of the various peptides was determined by measuring the reduction of fluorescence intensity, at 37 °C. Initially, DsPMB (2.5 μM) was mixed with LPS (3 μg/mL) and let it react for 15 minutes before recording the fluorescence […]
intensity (at λem = 485 nm and λex = 340 nm). Then, the peptide was titrated (1 μM increments, up to 10 μM) into the DsPMB/LPS mixture, and the fluorescence was recorded two minutes after the compound addition. The decrease in fluorescence was interpreted as the displacement of DsPMB from the LPS due to competitive binding by the peptide.[12,13] Specific Fluorescence Enhancement
Figure S8. Fluorescence emission of dansyl-polymyxin (DsPMB) in presence of lipopolysaccharide (LPS) extracted from P. aeruginosa (3 µg/mL) in TRIS/NaCl buffer (10 mM, pH 7.4). The fluorophore was excited at 340 nm (5 nm slit width) and recorded from 420 to 650 nm. The data represent mean value from three measurement. Specific fluorescence represents the emission of DsPMB with the non-specific fluorescence (no LPS) deduced.

Serum stability assay = format: in vitro ADME; settings: human serum 12.5% in 0.1 M Tris buffer pH 7.4, 37 °C, 200 µM peptide, time points 0/1/6/10/24 h, triplicates, LC(-MS), 4-hydroxybenzoic acid internal standard
Method: Human serum was diluted in 0.1 M filtered TRIS buffer pH 7.4 (25%, 1:3, v/v). Selected hybrids were diluted in 0.1 M filtered TRIS buffer pH 7.4 to a concentration of 400 μM and 0.1 mg/mL of 4-hydroxybenzoic acid was added as internal standard. Aliquots of peptide solution (50 μL) were added to aliquots of serum (50 uL) in sterile Eppendorf tubes, to reach a peptide concentration of 200 μM during the assay. Samples were incubated at 37 °C under gentle stirring (350 rpm). Different samples (triplicates) were quenched at different time points (0 / 1 / 6 / 10 / 24 h) by precipitating serum proteins through the addition of 100 μL of a solution ZnSO4·7 H2O (0.05 mM) in water/ACN (1:1) and cooling in ice bath for 10 minutes.
Protein precipitates were pelleted under centrifugation (5 min at 14’000 rpm) and the supernatants were analysed by LC-MS. Experiment controls included a precipitation control for each peptide to test their resistance to the protein precipitation conditions and serum blanks to check reproducibility over different serum batches. Peaks corresponding to the internal standard and the undegraded peptides were integrated, with the ratio peptide/standard at t = 0 h as 100 % undegraded peptide.
Cell Culture Conditions. […]

E. coli W3110 = format: cell-based, Escherichia coli; settings: W3110, pH 8.5
Method: as §1
(§3) Antimicrobial activity was assayed for all the peptide-peptoids against P. aeruginosa PAO1, K. pneumoniae NCTC418, E. coli W3110, A. baumannii ATCC 19606, methicillin-resistant S. aureus COL (MRSA) and for selected peptides on P. aeruginosa PA14, as well as the clinical isolates ZEM-1A and ZEM9A, K. pneumoniae OXA-48, Enterobacter cloacae, Stenotrophomonas maltophilia and Staphylococus epidermidis. To determine the Minimal Inhibitory Concentration (MIC), Broth Microdilution method was used. A colony of bacteria was picked and grown in LB medium overnight at 37 °C. The next day, the culture was then regrown in LB medium to log phase (OD600 = 0.6 to 0.8), which lasted approximately 4 hours, and diluted to an OD600 of 0.022 in the desired medium (full MH or 12.5% MH).
(§4) The compounds were prepared as stock solutions of 2 mg/mL in sterilized MilliQ deionized water and then diluted in the desired media (full MH or 12.5% MH) to reach the first concentration tested (32 μg/mL). The compounds were added to the first well of a 96-well sterile, round bottom microtiter plates in polystyrene (TPP®, untreated) and diluted serially by ½ in the desired media (full MH or 12.5% MH), to a final volume of 150 µL/well. To each well was finally added 4 µL of the diluted bacterial suspension (see above), corresponding to approximately 5×10^5 CFU. For each test, two columns of the plate were kept for sterility control (medium only), growth control (medium with bacterial inoculum, no compound). The positive control, Polymyxin B (starting with a concentration of 16 µg/mL) in MH medium with bacterial inoculums, was introduced in the two first lines of the plate. The plates were incubated at 37 °C for ca. 18 hours under static conditions. 15 µL of 3-(4,5-dimethylthiazol-2-yl)-2,5-diphenyltetrazolium bromide (MTT)[7] (1 mg/mL in sterilized MilliQ deionized water) were added to each well and the plates were incubated for 20-30 minutes at room temperature. The […]
as §2
(§5) Minimal Hemolytic Concentration (MHC) […]
(§6) 11. Minimal inhibitory in presence of salt
(§7) The same procedure as for the antibacterial activity measurements by minimal inhibitory concentration assay (MIC) was applied. The media, 12.5% Mueller-Hinton broth was this time supplemented with different salt concentrations (0, 100, 200 300 mM NaCl). […]
(§8) All data, in μg/mL, measured against P. aeruginosa PAO1, with or without addition of salt (NaCl). The values were measured in dilute medium (12.5% MH) and at slightly basic pH (pH = 8.5), after incubation for 16-20 h at 37 °C. Values represent two different duplicate MIC determinations.

P. aeruginosa PAO1 = format: cell-based, Pseudomonas aeruginosa; settings: PAO1, pH 8.5
Method: as §1, §3, §4, §2, §5, §6
as §7, with “NaCl). The MIC activities were then determined against Pseudomonas aeruginosa PAO1 and Escherichia coli” for “NaCl).”
Table S6. Minimal inhibitory concentration (MIC) on P. aeruginosa PAO1 as function of salt […]
as §8

Row | MIC on E. coli, 0 mM NaCl (E. coli W3110) [µg/mL] | MIC on E. coli, 100 mM NaCl (E. coli W3110) [µg/mL] | MIC on E. coli, 200 mM NaCl (E. coli W3110) [µg/mL] | MIC on E. coli, 300 mM NaCl (E. coli W3110) [µg/mL] | MIC on P. aeruginosa, 0 mM NaCl (P. aeruginosa PAO1) [µg/mL] | MIC on P. aeruginosa, 100 mM NaCl (P. aeruginosa PAO1) [µg/mL] | MIC on P. aeruginosa, 200 mM NaCl (P. aeruginosa PAO1) [µg/mL] | MIC on P. aeruginosa, 300 mM NaCl (P. aeruginosa PAO1) [µg/mL] | Compound | Loss of activity of linearized analog relative to macrocyclic parent [1] | other results
1 | – | – | – | – | – | – | – | – | FA4-Val-C2-A1-Ala-Lys-Gly-Lys-C3-Lys [EB13lin, linearized analog of EB13] | between two‐fold and eight‐fold less active | –
2 | – | – | – | – | – | – | – | – | FA7-H4-C3-A6-Dab(*)-C2-Lys-Ser-Lys-C1-Lys-* (lariat or depsi) [EB33, hemolytic peptide-peptoid macrocycle, PDGA-generated PMB2 analog] | – | Hemolysis of red blood cells relative to PMB2 (human red blood cells): slightly more hemolytic than PMB2; Binding to lipopolysaccharide (dansyl-PMB fluorescence displacement) [2]: an even stronger signal
3 | – | – | – | – | – | – | – | – | FA5-A3-Lys-Asn-Ala-Lys-H2-Lys-C3-Lys [EB12lin, linearized analog of EB12] | between two‐fold and eight‐fold less active | –
4 | – | – | – | – | – | – | – | – | FA10-A3-Lys-C2-Dab(*)-Asn-C2-Lys-Val-Lys-* (lariat or depsi) [EB18, peptide-peptoid macrocycle, PDGA-generated PMB2 analog] | – | Stability against proteolysis in human serum (undegraded peptide) (Serum stability assay): did not show any significant degradation in human serum
5 | 8 (≈ 7.08 µM) | > 64 | > 64 | > 64 | 32 (≈ 28.3 µM) | > 64 | > 64 | > 64 | CCCCCCCC(=O)N(CC(=O)N(CCCN)CC(=O)N[C@@H](CCC(N)=O)C(=O)N[C@H]1CCNC(=O)[C@H](CCCCN)NC(=O)[C@H](CCCCN)NC(=O)[C@H](CCC(N)=O)NC(=O)CN(CCCCN)C1=O)Cc1cccnc1 [EB34] (Octanoyl-[NGly(CH2(3-pyridyl))][Gly(N(CH2)3NH2)]Q[Dab][Nlys]QKK; lactam 4-C) | – | –
6 | 4 (≈ 3.46 µM) | 16 (≈ 13.8 µM) | > 64 | > 64 | 16 (≈ 13.8 µM) | > 64 | > 64 | > 64 | CCCN1CC(=O)N[C@@H](CC(N)=O)C(=O)N[C@@H](CCCCN)C(=O)N(CCCN)CC(=O)N[C@@H](CCCCN)C(=O)NCC[C@H](NC(=O)[C@H](CCCNC(=N)N)NC(=O)CNC(=O)CN(CCc2ccccc2)C(=O)CCC(C)C)C1=O [EB26] ({Pentanoyl(4-Me)}-[Gly(NCH2CH2Ph)]GR[Dab][NPrGly]NK[Gly(N(CH2)3NH2)]K; lactam 4-C) | – | –
